Data taken from patent US20250034201A1, “PRODRUGS OF GANAXOLONE” (priority 2022, published 2025).
≈ marks a conversion by molar mass, not a printed value. Where two headings read alike, the source gives them in different places.

What was measured:
[1] = Measured solubility in buffer, LC-MS/MS; type: physicochemical; conditions: aqueous buffer, thermodynamic from solid
Procedure: […] The mixture was vortexed and a magnetic stirring bar was subsequently added to the vial. The vial was placed on a magnetic stirrer with constant stirring for 16-24 hours at room temperature. The pH of the top layer solution was measured. Subsequently, 200 μL of the top layer solution was placed in a 1.5 mL microcentrifuge tube and centrifuged at 18,000 g for 10 min at room temperature. A 10 μL aliquot of supernatant was added to 990 μL of methanol:water (1/:1, v/v) and vortexed. Then, one volume of acetonitrile containing internal standard was added to one volume of the above 100-fold diluted solution and the resulting solution was vortexed and placed in 96-well plate for LC-MS/MS analysis. […] LC-MS-MS analysis was performed utilizing multiple reaction monitoring for detection of characteristic ions for each test compound, additional related analytes and internal standard.

[2] = Stability in simulated gastric fluid (SGF); type: in vitro ADME; conditions: SGF with pepsin pH 1.2, 37° C.; for half-life: simulated gi fluid, 2 μg/mL, read-out: SGF t1/2
Procedure: (§1) The stability of exemplary compounds in simulated gastric fluid (SGF) and simulated intestinal fluid (SIF) was tested according to the following protocol.

[3] = Stability in simulated intestinal fluid (SIF); type: in vitro ADME; conditions: SIF with pancreatin pH 6.8, 37° C.; for half-life: simulated gi fluid, 2 μg/mL, read-out: SIF t1/2
Procedure: as §1

[4] = Rat liver microsomal stability; type: in vitro ADME; conditions: for half-life / microsomal CLint: rat liver microsomes 0.5 mg/mL, with NADPH; for half-life / microsomal CLint / Rat Liver Microsomal Stability no NADPH, % remain 1 h: compound 0.5 μM; for half-life: 37° C., read-out: Rat Liver Microsomal Stability t1/2; for microsomal CLint: read-out: Rat Liver Microsomal Stability CLint (uL/min/mg liver); for Comments: production of GNX (ganaxolone) in rat liver microsomes / Rat Liver Microsomal Stability no NADPH, % remain 1 h: rat liver microsomes
Procedure: (§2) For several compounds only human liver microsomal stability was tested. […] The microsomal assays were carried out with and without the addition of NADPH at a final concentration of 1 mM. For negative control samples, NADPH reagent was not added. […] Note that compounds undergo only Phase I metabolism in liver microsomes.
(§3) CLint=the intrinsic hepatic clearance (uL/min/mg), where CLint is equal to 0.693/(t1/2×Cmp)

in vitro [5] = type: in vitro ADME, human; conditions: compound 0.5 μM; for half-life / microsomal CLint: human liver microsomes 0.5 mg/mL, with NADPH; for half-life: 37° C., read-out: Human Liver Microsomal Stability t1/2; for microsomal CLint: read-out: Human Liver Microsomal Stability CLint (uL/min/mg liver) (converted); for Human Liver Microsomal Stability no NADPH, % remain 1 h: human liver microsomes
Procedure: as §2

[6] = Dog liver microsomal stability; type: in vitro ADME; conditions: for microsomal CLint / half-life: dog liver microsomes 0.5 mg/mL, compound 0.5 μM; for microsomal CLint: read-out: Dog Liver Microsomal Stability CLint (uL/min/mg liver); for half-life: read-out: Dog Liver Microsomal Stability t1/2; for Dog Liver Microsomal Stability no NADPH, % remain 1 h: dog liver microsomes
Procedure: as §2, §3
Certain compounds were also tested in mice and dog liver microsome assays according to the protocol outlined above. […].

in vitro [7] = conditions: for Human plasma t90 / Rat plasma t90: 2 μg/mL, 37° C.; for Observations: stability / GNX production in human plasma / half-life / Observations: stability / GNX production in rat plasma: plasma
Procedure: The plasma stability of exemplary compounds was tested using rat, mice, dog, and human plasma, according to the following protocol. For each test compound, samples at a final concentration of 2 μg/mL were prepared in blank plasma of selected species. All samples were incubated at 37° C. on a 150-RPM orbital shaker, and an aliquot was removed at pre-determined time points (0, 15, 30, 60, and 120 minutes). Samples were precipitated with three volumes of acetonitrile containing propranolol as internal standard, and centrifuged for 10 min at 2000 g before LC/MS/MS analysis of the supernatant solutions.

Dog plasma stability = type: in vitro ADME; conditions: dog plasma; for Dog plasma t90 / half-life: 2 μg/mL, 37° C.; for half-life: read-out: Dog plasma Half life (t1/2)
[8] = Pharmacokinetic study with Compound 218 (IV 5 mg/kg, PO 25 mg/kg); type: in vivo; conditions: dog, plasma, fasted male beagle dogs; for AUC(0-t): read-out: Compound 218 PK AUClast; for MRT inf: read-out: Compound 218 PK MRTInf; for half-life: read-out: Compound 218 PK t1/2 (converted); for Vd: male, beagle, 5 mg/kg
Procedure: […]; n=3) and oral (PO) administration (25 mg/kg; n=3) in fasted male beagle dogs.

[9] = pH 7.4, 50 mM phosphate buffer, 16-24 hours, room temperature, read-out: Solubility pH 7.4
[10] = buffer, pH 2.0, room temperature, read-out: Solubility pH 2.0
[11] = analyte Compound 218, IV 5 mg/kg Compound 218, mean
[12] = analyte Compound 218, oral 25 mg/kg Compound 218, mean

CC(=O)[C@H]1CC[C@H]2[C@@H]3CC[C@H]4C[C@](C)(OC(=O)CNC(C)(C)C(=O)O)CC[C@]4(C)[C@H]3CC[C@]12C [Compound 120]
solubility [1, 9]: 35 µg/mL (≈ 73.6 µM) | solubility [1, 10]: 39 µg/mL (≈ 82 µM) | SGF (% remain, 60 min) [2]: 83% | half-life [2]: 4.17 h | SIF (% remain, 60 min) [3]: 74% | half-life [3]: 3.32 h | Comments: production of GNX (ganaxolone) in rat liver microsomes [4]: In rat no GNX produced; | half-life [4]: 0.6 h | microsomal CLint [4]: 38 µL/min/mg | Rat Liver Microsomal Stability no NADPH, % remain 1 h [4]: 72% | half-life (in vitro [5]): 0.267 h | microsomal CLint (in vitro [5]): 86 µL/min/mg | Human Liver Microsomal Stability no NADPH, % remain 1 h (in vitro [5]): 8% | microsomal CLint [6]: 17 µL/min/mg | half-life [6]: 1.35 h | Dog Liver Microsomal Stability no NADPH, % remain 1 h [6]: 83% | Human plasma t90 (in vitro [7]): 218 min | Observations: stability / GNX production in human plasma (in vitro [7]; human): No GNX produced in rat, | half-life (in vitro [7]; human): 24.8 h | Rat plasma t90 (in vitro [7]): 78 min | Observations: stability / GNX production in rat plasma (in vitro [7]; rat): No GNX produced in rat, | half-life (in vitro [7]; rat): 8.67 h | Observations: stability / GNX production in dog plasma (Dog plasma stability): No GNX produced in rat, | Dog plasma t90 (Dog plasma stability): 88 min | half-life (Dog plasma stability): 9.72 h

CC(=O)[C@H]1CC[C@H]2[C@@H]3CC[C@H]4C[C@](C)(OC(=O)COC(=O)C(C)(C)N)CC[C@]4(C)[C@H]3CC[C@]12C [Compound 218]
solubility [1, 9]: 152 µg/mL (≈ 320 µM) | solubility [1, 10]: 16900 µg/mL (≈ 35500 µM) | SGF (% remain, 60 min) [2]: 97% | half-life [2]: 35 h | SIF (% remain, 60 min) [3]: 95% | half-life [3]: 22.7 h | Comments: production of GNX (ganaxolone) in rat liver microsomes [4]: In rat no GNX produced; | half-life [4]: 0.94 h | microsomal CLint [4]: 26 µL/min/mg | Rat Liver Microsomal Stability no NADPH, % remain 1 h [4]: 83% | half-life (in vitro [5]): 0.24 h | microsomal CLint (in vitro [5]): 95.3 µL/min/mg | Human Liver Microsomal Stability no NADPH, % remain 1 h (in vitro [5]): 10.0% | microsomal CLint [6]: 69 µL/min/mg | half-life [6]: 0.335 h | Dog Liver Microsomal Stability no NADPH, % remain 1 h [6]: 44.4% | Human plasma t90 (in vitro [7]): 8.6 min | Observations: stability / GNX production in human plasma (in vitro [7]; human): No GNX produced | half-life (in vitro [7]; human): 0.948 h | Rat plasma t90 (in vitro [7]): 8.5 min | Observations: stability / GNX production in rat plasma (in vitro [7]; rat): GNX produced in rat | half-life (in vitro [7]; rat): 0.938 h | Observations: stability / GNX production in dog plasma (Dog plasma stability): No GNX produced | Dog plasma t90 (Dog plasma stability): 783 min | half-life (Dog plasma stability): 86.6 h | AUC(0-inf) ([8]; analyte Compound 218, IV 5 mg/kg Compound 218, mean, read-out: Compound 218 PK AUCinf): 2200 ng·h/mL | AUC(0-t) [8, 11]: 2130 ng·h/mL | C0 ([8]; analyte Compound 218, IV 5 mg/kg Compound 218, mean, read-out: Compound 218 PK C0): 2750 ng/mL | clearance ([8]; analyte Compound 218, IV 5 mg/kg Compound 218, mean, read-out: Compound 218 PK CL): 37.9 mL/min/kg | MRT inf [8, 11]: 5.03 h | half-life [8, 11]: 17.7 h | AUC(0-inf) ([8]; analyte Compound 218, oral 25 mg/kg Compound 218, mean, read-out: Compound 218 PK AUCInf): 415 ng·h/mL | AUC(0-t) [8, 12]: 359 ng·h/mL | Cmax ([8]; analyte Compound 218, oral 25 mg/kg Compound 218, mean, read-out: Compound 218 PK Cmax): 89.8 ng/mL | MRT inf [8, 12]: 6.38 h | Tmax ([8]; analyte Compound 218, oral 25 mg/kg Compound 218, mean, read-out: Compound 218 PK Tmax): 1.17 h | half-life [8, 12]: 6.13 h | bioavailability ([8]; analyte Compound 218, oral 25 mg/kg vs IV 5 mg/kg Compound 218, mean, read-out: Compound 218 PK F (%)): 3.76% | Vd ([8]; intravenous, Compound 218 administered, read-out: volume of distribution (Vd) (dose/Co)): 1.82 L/kg | Vd ([8]; iv, analyte Compound 218, IV 5 mg/kg Compound 218, mean, read-out: Compound 218 PK Vss): 11.4 L/kg | Vd ([8]; iv, analyte Compound 218, IV 5 mg/kg Compound 218, mean, read-out: Compound 218 PK Vz): 57.5 L/kg

CC(=O)[C@H]1CC[C@H]2[C@@H]3CC[C@H]4C[C@](C)(O)CC[C@]4(C)[C@H]3CC[C@]12C [ganaxolone, Ganaxolone]
solubility [1, 9]: 4 µg/mL (≈ 12 µM) | solubility [1, 10]: 2 µg/mL (≈ 6.01 µM) | SGF (% remain, 60 min) [2]: 95.6% | SIF (% remain, 60 min) [3]: 94.6% | half-life [4]: 0.2 h | microsomal CLint [4]: 116 µL/min/mg | Rat Liver Microsomal Stability no NADPH, % remain 1 h [4]: 98.0% | half-life (in vitro [5]): 0.21 h | microsomal CLint (in vitro [5]): 110 µL/min/mg | Human Liver Microsomal Stability no NADPH, % remain 1 h (in vitro [5]): 99.0% | microsomal CLint [6]: 27.8 µL/min/mg | half-life [6]: 0.83 h | Dog Liver Microsomal Stability no NADPH, % remain 1 h [6]: 43.6% | Human plasma t90 (in vitro [7]): 211.0 min | half-life (in vitro [7]; human): 23.4 h | Rat plasma t90 (in vitro [7]): 94.2 min | half-life (in vitro [7]; rat): 10.4 h | Dog plasma t90 (Dog plasma stability): 564 min | half-life (Dog plasma stability): 62.4 h
